What is called IC50 is the midpoint of a concentration-inhibition curve.

The assay has as its system S. Typhimurium GFP reporter counter-screen, fluorescence, 4 h. Description: nmpC-GFP reporter counter-screen in S. Typhimurium, dose response, counter-screen for PhoP regulon inhibitor project, Salmonella Typhimurium, GFP fluorescence (AID 2401).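 Further: S. typhimurium with Mg-insensitive nmpC-GFP reporter grown at 10 µM Mg2+; drop in reporter fluorescence reflects general culture growth inhibition.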 On the technique in general: A counterscreen serves to expose hits that act by an unwanted route or on another target.
For `O=C(C[n+]1cc(-c2ccc(Cl)c(Cl)c2)n2c1CCC2)N1c2ccccc2Sc2ccccc21`, the IC50 is 49 µM.

Turning to `CC[n+]1c(/C=C/C=C/c2ccc(N(C)C)cc2)sc2ccccc21`, the IC50 was 72.9 µM.

With `CCCCCCCCCCCCCCCC[N+](C)(C)C`, the IC50 was 30.5 µM.

Regarding `Nc1nonc1-n1nnc(C(=O)N/N=C/c2cc(Br)ccc2O)c1CSC1=NCCS1`, the IC50 is 19.3 µM.

In the case of `CN(C)C1C(=O)C(C(N)=O)=C(O)C2(O)C(=O)C3=C(O)c4c(O)cccc4C(C)(O)C3C(O)C12` (stereo unspecified), the IC50 was 0.58 µM.

Regarding `O=C(N/N=C/c1ccc([N+](=O)[O-])o1)c1ccc(O)cc1`, the IC50 was 36.8 µM.

Regarding `Oc1ccc(/C=N/Nc2nccnc2Cl)c(O)c1`, the IC50 is 35 µM.

In the case of `COc1cccc(Nc2nc(NCC3CCCO3)c3ccccc3n2)c1` (stereo unspecified), the IC50 was 87.5 µM.

On to `CN(C)c1ccc(/C=C/c2ccc3c4ccccc4ccc3[n+]2-c2ccccc2)cc1`, for which the IC50 was 18.8 µM.

With `c1ccc(C2CNCc3c2ccc2ccccc32)cc1` (stereo unspecified), the IC50 is 138 µM.

In the case of `CCn1cc(C(=O)O)c(=O)c2cc(F)c(N3CCN(C(=S)NC(=O)c4c(OC)cccc4OC)CC3)cc21`, the concentration for half-maximal inhibition (IC50) is 54.2 µM.

For the compound `CC(=O)N1CCN(c2cc3c(cc2F)c(=O)c(C(=O)O)cn3C2CC2)CC1`, the IC50 was 36.5 µM.

Turning to `COc1ccc(C(C[N+](=O)[O-])C2(c3ccc(OC)c(OC)c3)C(=O)c3ccccc3C2=O)cc1` (stereo unspecified), the IC50 was 23.2 µM.

Turning to `Oc1cccc(/C=N/Nc2ccc(Cl)nn2)c1O`, the IC50 was 18.3 µM.

With `Oc1ccc(CN2CCc3ccccc3C2)c2cccnc12`, the IC50 was 18.5 µM.

With `CN1CCN(CCCN2c3ccccc3Sc3ccc(Cl)cc32)CC1`, the half-maximal inhibitory concentration (IC50) is 51 µM.

With `COC1C(OC(=O)c2ccc(C)[nH]2)C(O)C(Oc2ccc3c(O)c(NC(=O)c4ccc(O)c(CC=C(C)C)c4)c(=O)oc3c2Cl)OC1(C)C` (stereo unspecified), the IC50 was 16.5 µM.

Regarding `CCCc1cnc(NCCNCC(O)COc2ccc(Cl)c(Cl)c2)nc1` (stereo unspecified), the IC50 is 40.3 µM.

For the compound `OC(CNCCc1ccccc1)COc1ccc(OCC(O)CNCCc2ccccc2)cc1` (stereo unspecified), the IC50 was 63.7 µM.

With `CCn1cc(C(=O)NCC(C)C)c(=O)c2cc(F)c(N3CCN(C)CC3)cc21`, the concentration for half-maximal inhibition (IC50) was 67.8 µM.

For `c1ccc(-c2cccc(-c3ccccn3)n2)nc1`, the IC50 was 21.2 µM.

Consider `O=C(CSc1nc2ccccc2s1)N/N=C/c1cc([N+](=O)[O-])ccc1O`, for which the IC50 was 88.4 µM.

Turning to `CC(C(=O)c1ccc(-c2ccccc2)cc1)[n+]1cccc(NC(=O)c2ccccc2)c1` (stereo unspecified), the IC50 was 76.6 µM.

Regarding `CCn1cc(C(=O)O)c(=O)c2cc(F)c(N3CCN(C(=S)Nc4ccccc4OC)CC3)cc21`, the IC50 is 38.8 µM.

Take `Oc1ccc(/C=N/Nc2ncc(Br)cn2)c(O)c1`: the IC50 was 71.1 µM.

Turning to `c1ccc2c(c1)Sc1ccccc1N2CC1CN2CCC1CC2` (stereo unspecified), the IC50 was 108 µM.

As to `CCc1ccc(S(=O)(=O)/N=C2/C=C(Sc3ncn[nH]3)C(=O)c3ccccc32)cc1`, the IC50 is 76.9 µM.

With `C#CCOCCOCCOCCNc1nc(N2CCN(C(=O)CCCCCCCCCCNC(=O)[C@H](CCCN=C(N)N)n3cc(C[C@@H](C)CC)nn3)CC2)nc(N2CCN(C(=O)CCCCCCCCCCNC(=O)[C@@H]([C@H](C)CC)n3cc(CCCCCN)nn3)CC2)n1`, the 50% inhibitory concentration (IC50) is 74.9 µM.

As for `CC(C)(C)/C(O)=C/c1nc2cc(Cl)ccc2oc1=O`, the IC50 was 65.1 µM.

As for `O=S1(=O)N=C(N/N=C/c2ccccn2)c2ccccc21`, the IC50 was 19.3 µM.

Take `O=C(N/N=C/c1c[nH]c2ccccc12)c1cc(-c2ccc3ccccc3c2)n[nH]1`: the IC50 was 47.3 µM.

On to `CC[n+]1c(/C=C/N(C)c2ccccc2)n(-c2ccccc2)c2ccc(-c3nc4ccccc4s3)cc21`, for which the IC50 is 19.4 µM.

As for `COc1ccc(-c2ccc3c(N)c(C(=O)c4cccc(OC)c4)sc3n2)cc1`, the IC50 was 83.2 µM.

On to `N#CC1=C(S)N(c2ccccc2)C(c2ccc(-c3ccccc3Cl)o2)NC1=O` (stereo unspecified), for which the IC50 was 144 µM.

Consider `Cc1ccc(Nc2cc(C)c3c(O)cccc3n2)cc1C`, for which the IC50 was 75.3 µM.

In the case of `CCOC(=O)Cc1csc(NC(=O)NC2(C(F)(F)F)Oc3cc(Cl)c(Cl)cc3O2)n1`, the IC50 is 74.6 µM.

The record behind these values is PubChem BioAssay AID2401 (Southern Research Specialized Biocontainment Screening …, 2010).
